Data set [1] is described as follows: CCK8 cell viability (cytotoxicity) assay. Format: cell-based, murine. The note with it: mouse, RAW264.7 cells, means ± SD (n = 3). The protocol:
The toxic effect of synthesized compounds was evaluated on RAW264.7 cells utilizing a CCK8 assay kit.
RAW264.7 cells were seeded in 96-well plates and incubated with various compounds, each at a uniform concentration of 50 μM, for 24 h. Following this incubation, CCK8 was added to the 96-well plates and incubated at 37 °C for 1 h. The control group was cultivated solely in fresh medium. The absorbance at 450 nm was quantified using an enzyme marker.

Data set [2] deals with LPS-induced NO production in RAW 264.7 cells. The data set can be described thus: LPS-induced NO production (Griess reagent). Conditions: for IC50: Mus musculus, RAW264.7, LPS 500 ng/mL 24 h, read-out: IC50, inhibition of LPS-induced NO production; for IC50 / NO inhibition rate: Griess reagent, means ± SD (n = 3); for Inhibition of LPS-induced NO production, result in words (na / tox): na at 40 μM. Also on record: NO inhibition rate: dose or concentration left out as unconfirmed; key to Inhibition of LPS-induced NO production, result in words (na / tox): na: no activity at the concentration of 40 μM; toxicity. The data set is classed as cell-based, murine. How it is done: Despite extensive research efforts focused on the treatment ALI, no specific drugs have been identified thus far. In the quest to discover innovative anti-inflammatory drugs for ALI treatment, we assessed the anti-inflammatory potential of pyrrolo[2,1-a]isoquinoline aryl ketones were evaluated through their capacity to suppress LPS-induced NO release in RAW264.7 cells.[21,28] Griess reagent was used to quantify the levels of LPS-induced NO release in RAW264.7 cells following treatment with the synthesized compounds.
The quantification of NO production in activated RAW264.7 cells was achieved by measuring the concentration of nitrite, which serves as a stable oxidative metabolite of NO, employing a previously established protocol.[37] RAW264.7 cells were cultured overnight in 48-well plates at a cellular density of 5 × 10^4 cells per milliliter. […] Briefly, Griess reagents I and II were mixed with 50 μL of the culture medium supernatant, and the resultant mixture was analyzed spectrophotometrically at a wavelength of 540 nm using an automated microplate reader. The NO inhibition rate was calculated using the following formula: NO inhibition rate = [(OD540 − compound OD540)/(OD540 − blank OD540)] × 100%.
For orientation: Nitrite, measured by Griess reagent, commonly stands in for NO production.

The next data set relates to COX-2. The note with it: cited from earlier work.
Another data set deals with PPAR-α. Also noted: method as in PMID 22489042. Conditions: cited from earlier work.
A further data set deals with PPAR-γ. Also on record: method as in PMID 22489042. Conditions: cited from earlier work.
The test system of the next data set is PPAR-δ. Also on record: method as in PMID 22489042. Conditions: cited from earlier work.
The test system of a further data set is COX-1. Also noted: method as in PMID 32358780, PMID 30243628. Conditions: cited from earlier work.

This is an account of results in paper PMC12590356, “Novel pyrrolo[2,1-a]isoquinoline aryl ketones attenuate carbon nanotube-induced acute lung injury through NF-κB pathway inhibition” (RSC Advances, 2025).

Each structure is given as a SMILES string. Where two headings read alike, the source gives them in different places.

The term viability denotes a read-out of living cells in per cent, often relative to untreated cells. In general, IC50 refers to the concentration at which inhibition is half-maximal. Broadly, the EC50 is the concentration giving half of the maximal effect.

As to `COC(=O)c1ccc2c3ccccc3ccn12` [3a], the viability at 24 h, 50 µM in data set [1] came out at 92.4 ± 6.3%. For the same compound, in data set [2], the IC50 was determined as 19.9 ± 0.71 µM.
With `CC(C)(C)OC(=O)c1ccc2c3ccccc3ccn12` [3b], the viability at 24 h, 50 µM in data set [1] turned out to be 95.6 ± 2.9%. This compound showed an NO inhibition rate in data set [2] of 42.0 ± 4.2%.
Take `N#Cc1ccc2c3ccccc3ccn12` [3c]: in data set [1], the viability at 24 h, 50 µM is 97.1 ± 2.6%. In data set [2], this compound came in with an NO inhibition rate of 46.9 ± 1.8%.
Consider `O=C(c1ccccc1)c1ccc2c3ccccc3ccn12` [3d], for which the viability at 24 h, 50 µM in data set [1] turned out to be 96.8 ± 6.6%. The NO inhibition rate in data set [2] is 48.0 ± 1.3%.
As to `COc1ccc(C(=O)c2ccc3c4ccccc4ccn23)cc1` [3e], the viability at 24 h, 50 µM in data set [1] is 88.7 ± 5.8%.
Consider `Cc1ccc(C(=O)c2ccc3c4ccccc4ccn23)cc1` [3f], for which the viability at 24 h, 50 µM in data set [1] stood at 53.6 ± 6.4%. Further, the “Inhibition of LPS-induced NO production, result in words (na / tox)” value in data set [2] is given as “tox”.
In the case of `O=C(c1ccc(Cl)cc1)c1ccc2c3ccccc3ccn12` [3h], in data set [1], the viability at 24 h, 50 µM worked out at 101 ± 3%. Further, the NO inhibition rate in data set [2] is recorded as 39.6 ± 5.3%.
For the compound `O=C(c1ccc(Br)cc1)c1ccc2c3ccccc3ccn12` [3i], in data set [1], the viability at 24 h, 50 µM is 95.9 ± 7.7%.
In the case of `O=C(c1ccc(C(F)(F)F)cc1)c1ccc2c3ccccc3ccn12` [3j], in data set [1], the viability at 24 h, 50 µM worked out at 89.9 ± 5.6%.
Turning to `O=C(c1ccccc1Cl)c1ccc2c3ccccc3ccn12` [3l], the viability at 24 h, 50 µM in data set [1] was 99.3 ± 8.8%. The compound further displayed an NO inhibition rate in data set [2] of 38.2 ± 5.1%.
On to `O=C(c1ccccc1O)c1ccc2c3ccccc3ccn12` [3m], for which, in data set [1], the viability at 24 h, 50 µM was 46.4 ± 6.5%. The “Inhibition of LPS-induced NO production, result in words (na / tox)” value in data set [2] is on record as “tox”.
On to `Cc1cccc(C(=O)c2ccc3c4ccccc4ccn23)c1` [3n], for which the NO inhibition rate in data set [2] is 46.8 ± 3.1%.
Regarding `O=C(c1cccc(Cl)c1)c1ccc2c3ccccc3ccn12` [3o], the viability at 24 h, 50 µM in data set [1] was 91.5 ± 8.5%. The compound also had an NO inhibition rate in data set [2] of 39.2 ± 7.1%.
Consider `O=C(c1ccc2ccccc2c1)c1ccc2c3ccccc3ccn12` [3p], for which the viability at 24 h, 50 µM in data set [1] is 93.2 ± 4.7%.
Turning to `C=C(C)[C@@H]1CC[C@]2(C(=O)O)CC[C@]3(C)[C@H](CC[C@@H]4[C@@]5(C)CC[C@H](O)C(C)(C)[C@@H]5CC[C@]43C)[C@@H]12` [Betulinic acid, reference compound], the viability at 24 h, 50 µM in data set [1] came out at 85.8 ± 7.4%. Besides, in data set [2], the IC50 turned out to be 11.9 ± 1.3 µM.
Regarding `CC(C)(Oc1ccc(C(=O)c2ccc(Cl)cc2)cc1)C(=O)O` [Fenofibric acid], the half-maximal inhibitory concentration (IC50) in the data set with COX-2 (read-out: IC50, COX-2 inhibitory activity) was 0.048 µM. Further, the EC50 is […] with PPAR-α, […] in the data set with PPAR-γ and […] with PPAR-δ.
As for `CC(C(=O)O)c1cccc(C(=O)c2ccccc2)c1` (stereo not shown) [Ketoprofen], the 50% inhibitory concentration (IC50) in the data set with COX-1 is 0.002 µM; in the data set with COX-2 (read-out: IC50 for COX-2), 0.026 µM.
